# Assay results: PMC7801313, “Effect of lurbinectedin on the QTc interval in patients with advanced solid tumors: an exposure–response analysis” (Cancer Chemotherapy and Pharmacology, 2020)
# pIC50: −log10 of the molar value. Values joined by “and” are separate entries in the source; they are usually repeats but may differ in a detail not shown here. Equal values may be shown once. Read-outs that look alike come from different tables or passages of the source.
# Legend:
# [1] = system: patients with advanced solid tumors; test: QT evaluation study, by time point ECG analysis; type: in vivo, human
# Procedure: This was a QT evaluation study (EudraCT No. 2015-000206-18; ClinicalTrials.gov: NCT02451007) performed at a subset of sites participating in a multicenter, open-label, exploratory, phase II basket clinical trial (EudraCT No: 2014-003773-42; ClinicaTrials.gov: NCT02454972) conducted in patients with selected advanced solid tumors. The schedule used in this QT evaluation study was that evaluated in the basket trial: lurbinectedin 3.2 mg/m^2 given as a 1-h i.v. infusion q3wk.
# A screening ECG was collected between day -10 and day -2 before the first lurbinectedin infusion (day 1 of cycle 1) and transmitted to the central ECG laboratory to confirm the patient’s eligibility.
# On day 1 of cycle 1, two baseline triplicate ECGs (three 10-s digital ECGs in close succession) were collected: one before administration of prophylactic medication or pre-dose 1, and the other after antiemetic prophylactic medication (palonosetron 0.25 mg i.v.) and before the start of the lurbinectedin infusion or pre-dose 2 (also on cycle 2).
# In cycle 1 and cycle 2, the following triplicate ECGs were collected 5–10 min before their time-matched PK time points: 5 min before end of the lurbinectedin infusion (EOI), 30 min, 1, 3, 24, 72 (only on cycle 1), and 168 h after EOI.
# A 12-lead automated digital ECG recorder [Mortara Instrument (Milwaukee, WI, USA) ELI-150 ECG 12-lead digital recorder] was provided by a third-party central ECG laboratory (eResearchTechnology, Inc., Philadelphia, PA, USA). Analysis and reporting of ECG data were performed by a limited number of skilled readers who were blinded to treatment time point. ECG review of a particular patient was performed by a single reader. Interval duration measurements were collected using computer-assisted caliper placements on three consecutive beats. A cardiologist then verified the interval durations and performed the morphology analysis, noting any T-U wave complex compatible with an effect on cardiac repolarization. The ECG analysis was conducted in Lead II or in Lead V5 if Lead II was not analyzable. If Lead V5 was not analyzable, then Lead V2 was used, and followed by the most appropriate lead if necessary. The mean of triplicate ECG measures at each time point for each patient was used for analyses.
# Fridericia’s formula [6] is currently considered the most accurate method for correcting the effect of HR on QT interval [7], and was used as the main method for HR correction for QT (QTcF). Nevertheless, graphical inspection of QTcF and QT corrected by Bazett’s formula (QTcB) versus RR interval plots and statistical comparison of resulting squared linear regression slopes (R^2) was performed.
# The primary endpoint was the change in QTc corrected by the Fridericia’s formula (ΔQTcF) between each scheduled post-baseline ECG time point and baseline at cycle 1. A patient was considered evaluable for the primary endpoint if he/she had baseline and one or more post-baseline ECG assessments.
# Secondary endpoints were the ΔQTcF/lurbinectedin plasma concentration relationship, and change in other ECG parameters (i.e., HR, QRS, and PR).
# The primary comparison was ΔQTcF at each ECG time point. A non-inferiority criterion of 20 ms was used to establish the absence of post-baseline QTc prolongation when compared to baseline. An analysis of variance model with mixed effects was fitted, with ΔQTc data as the dependent variable and ECG time point as the fixed effects, and patient as random effect.
# Using the estimated least square means (LSM) and intra-patient standard deviation (Std) obtained from this model, a two-sided 90% confidence interval (CI) was calculated for each LSM ΔQTc. Non-inferiority was to be concluded if the upper bound (UB) of the one-sided 95% CI fell below 20 ms at each ECG time point.
# oncogenic transcription = system: oncogenic transcription; design: method as in PMID 20977459; conditions: cited from earlier work
# patients [2] = system: patients; design: method as in PMID 24563480; conditions: cited from earlier work
# hERG = system: hERG; design: method as in data on file; conditions: ref data on file; cited from earlier work
# [3] = cited from earlier work
# cynomolgus monkeys = system: cynomolgus monkeys; design: method as in data on file; conditions: single i.v. bolus at maximum tolerated dose, ref data on file; cited from earlier work
# [4] = design: method as in data on file; conditions: ref data on file; cited from earlier work
# cytochrome P450 (CYP) 3A = system: cytochrome P450 (CYP) 3A; design: method as in data on file; conditions: in vitro studies; ref data on file; cited from earlier work
# patients [5] = test: clinical toxicity of lurbinectedin as a single agent; type: in vivo, human; conditions: to date
# [6] = Cycle 1 Day 1, 30 min after end of infusion
# [7] = Cycle 1 Day 1, 1 h after end of infusion
# [8] = Cycle 1 Day 1, 3 h after end of infusion
# [9] = Cycle 1 Day 2, 24 h after end of infusion
# [10] = Cycle 1 Day 4, 72 h after end of infusion
# [11] = Cycle 1 Day 8, 168 h after end of infusion
# [12] = Cycle 2 Day 1, 5 min before end of infusion
# [13] = Cycle 2 Day 1, 5 min before start of infusion
# [14] = Cycle 2 Day 1, 30 min after end of infusion
# [15] = Cycle 2 Day 1, 1 h after end of infusion
# [16] = Cycle 2 Day 8, 168 h after end of infusion
# [17] = all time points other than 3 h after end of cycle 2 infusion
smiles,measurement,setting,value
"COc1ccc2[nH]c3c(c2c1)CCN[C@]31CS[C@@H]2c3c(OC(C)=O)c(C)c4c(c3[C@H](COC1=O)N1[C@@H]2[C@H]2c3c(cc(C)c(OC)c3O)C[C@@H]([C@@H]1O)N2C)OCO4 [lurbinectedin, Lurbinectedin]",effect on cardiac repolarization,[1]; 3.2 mg/m^2 1-h i.v. q3wk,not associated with a clinically relevant effect on cardiac repolarization
same,values above reference limits QTcF > 480 ms and ΔQTcF > 60 ms,[1]; 39 evaluable patients,No single value was above the reference limit values of concern
same,"ΔQTcF, mean (Stdv)","[1]; Cycle 1, 0.92 h after start of infusion",3.33 (8.46) ms
same,"ΔQTcF, mean (Stdv)","[1]; Cycle 1, 1.5 h after start of infusion",1.76 (8.25) ms
same,"ΔQTcF, mean (Stdv)","[1]; Cycle 1, 2 h after start of infusion",1.84 (10.88) ms
same,highest mean change from baseline in HR (± Std),"[1]; Cycle 1, 3 h after end of infusion",16.7 (± 11.0) bpm and 16.7 bpm
same,"ΔQTcF, mean (Stdv)","[1]; Cycle 1, 4 h after start of infusion",1.33 (10.39) ms
same,ΔQTcF UB90%CI,"[1]; Cycle 1 Day 1, 5 min before end of infusion",5.51 ms
same,ΔQTcF LSmean,"[1]; Cycle 1 Day 1, 5 min before end of infusion, 3.2 mg/m^2 1-h i.v.",3.32 ms
same,ΔQTcF LSmean,[1]; [6],1.76 ms
same,ΔQTcF UB90%CI,[1]; [6],3.93 ms
same,ΔQTcF LSmean,[1]; [7],1.84 ms
same,ΔQTcF UB90%CI,[1]; [7],4.69 ms
same,ΔQTcF LSmean,[1]; [8],1.32 ms
same,ΔQTcF UB90%CI,[1]; [8],4.05 ms
same,ΔQTcF LSmean,[1]; [9],-8.24 ms
same,ΔQTcF UB90%CI,[1]; [9],-5.26 ms
same,ΔQTcF LSmean,[1]; [10],-12.38 ms
same,ΔQTcF UB90%CI,[1]; [10],-9.39 ms
same,ΔQTcF LSmean,[1]; [11],-5.2 ms
same,ΔQTcF UB90%CI,[1]; [11],-2.41 ms
same,"ΔQTcF, mean (Stdv)","[1]; Cycle 2, 0.92 h after start of infusion",1.54 ms and 1.54 (12.36) ms
same,"ΔQTcF, mean (Stdv)","[1]; Cycle 2, 1.5 h after start of infusion",1.99 (12.06) ms
same,"ΔQTcF, mean (Stdv)","[1]; Cycle 2, 2 h after start of infusion",1.92 (13.65) ms
same,"ΔQTcF, mean (Stdv)","[1]; Cycle 2, 4 h after start of infusion (largest mean)",4.69 ms and 4.69 (15.28) ms
same,ΔQTcF LSmean,[1]; [12],2.25 ms
same,ΔQTcF UB90%CI,[1]; [12],5.68 ms
same,ΔQTcF LSmean,[1]; [13],-0.46 ms
same,ΔQTcF UB90%CI,[1]; [13],2.35 ms
same,ΔQTcF LSmean,[1]; [14],2.32 ms
same,ΔQTcF UB90%CI,[1]; [14],5.66 ms
same,ΔQTcF LSmean,[1]; [15],2.73 ms
same,ΔQTcF UB90%CI,[1]; [15],6.54 ms
same,ΔQTcF UB90%CI,"[1]; Cycle 2 Day 1, 3 h after end of infusion (largest UB)",9.6 ms and 9.60 ms
same,ΔQTcF LSmean,"[1]; Cycle 2 Day 1, 3 h after end of infusion (maximum)",5.39 ms
same,ΔQTcF LSmean,[1]; [16],-4.22 ms
same,ΔQTcF UB90%CI,[1]; [16],-1.08 ms
same,variation between lowest and largest mean change from baseline of PR interval,[1]; all time points and cycles,7.8 ms
same,variation between lowest and largest mean change from baseline of QRS duration,[1]; all time points and cycles,2.5 ms
same,LSM ΔQTcF at other time points,[1]; [17],≤ 3.3 ms
same,UB of the 90% CI of ΔQTcF at other time points,[1]; [17],< 6.6 ms
same,Umax (time when the largest mean ΔQTcF is reached),[1]; cycle 1,0.92 h
same,patients with ΔHR > 25%,[1]; cycle 1,44%
same,difference between Umax and Tmax,[1]; cycle 2,3.08 h
same,patients with ΔHR > 25%,[1]; cycle 2,49%
same,highest mean change from baseline in HR (± Std),"[1]; cycle 2, 3 h after end of infusion",17.5 (± 11.7) bpm and 17.5 bpm
same,effects on atrioventricular conduction or depolarization (mean changes in PR and QRS intervals),[1]; in vivo,No significant effects
same,in vitro activity,oncogenic transcription,low nanomolar range
same,most common limiting toxicity,patients [2],"myelosuppression, particularly neutropenia"
same,pIC50,hERG,5.06
same,IC50 hERG,hERG,6.9 µg/mL
same,population estimate for total plasma clearance,"[3]; 1-h i.v. infusion, cancer patients",11.2 L/h
same,extraction ratio,[3],0.19
same,inter-individual variability of all PK parameters,[3],20.9 to 51.2%
same,population estimate of apparent volume at steady state,[3],438 L and 438.4 L
same,reduction of clearance,[3]; co-administration of CYP3A inhibitors,30%
same,blood CL,[3]; corresponding to plasma clearance,~ 17 L/h
same,reduction of clearance,[3]; high C-reactive protein,20%
same,reduction of clearance,[3]; high α-1-acid glycoprotein,28%
same,reduction of clearance,[3]; low albumin,20%
same,cardiovascular changes,cynomolgus monkeys,mild decreases in blood pressure and increased heart rate
same,"effects on lead II ECG variables (PR, QT, QTcF, QTcV, QRS), ECG gross morphology, cardiac rhythm",cynomolgus monkeys,No effects were observed
same,protein binding,[4],highly protein-bound
same,role of metabolism by CYP3A in clearance,cytochrome P450 (CYP) 3A,major clearance mechanism
same,cardiac toxicity concerns,patients [5],no cardiac toxicity concerns
